{"source": "patent US20030109525A1", "about": "“Crystalline thiazine oxazolidinones” (PHARMACIA & UPJOHN COMPANY, priority 2001, published 2003)", "key": {"[1]": {"experiment": "Bulk drug stability (storage at elevated temperature and humidity, HPLC assay)", "type": "physicochemical", "protocol": "As referred to in the present application, “stable” in bulk drug stability tests means that at least about 90% by weight, preferably at least about 95% by weight, and more preferably at least about 99% by weight of the bulk drug remains unchanged after storage under the indicated conditions for the indicated time.\nAliquots (about 0.3 mg) of bulk anhydrous crystalline N-({(5S)-3-[4-(1,1-dioxido-4-thiomorpholinyl)-3,5-difluorophenyl]-2-oxo-1,3-oxazolidin-5-yl}methyl)acetamide were weighed into 2-mL vials. The uncapped vials were placed either in a 75% relative humidity chamber (desiccator containing water saturated with sodium chloride) or in a dry chamber (desiccator containing Drierite). The chambers were placed in temperature controlled cabinets at 56° C. and 70° C. A single vial was removed from each desiccator at selected time points and was assayed using high pressure liquid chromatography (HPLC)."}, "[2]": {"experiment": "Hygroscopicity by dynamic moisture sorption gravimetry (DMSG)", "type": "physicochemical", "conditions": "25° C.", "protocol": "X-ray diffraction (XRD) patterns were measured on a Scintag X2 diffractometer (Thermo ARL, Ecublens, Switzerland) equipped with a theta-theta goniometer. Single crystal x-ray diffraction was carried out on a Bruker SMART 6K CCD Area Detector diffractometer (Bruker AXS, Karlsruhe, Germany). Mass spectrometry (MS) (ionization type) was carried out on a Micromass Platform II spectrometer (Micromass, Manchester, United Kingdom). High pressure liquid chromatography (HPLC) was carried out on an Agilent 1100 Series chromatograph (Agilent Technologies, Palo Alto, Calif.). Melting points were determined using a TA Instruments 2920 differential scanning calorimeter (TA Instruments, New Castle, Del.) module with a Thermal Analyst 5000 controller. Hygroscopicity was assessed by dynamic moisture sorption gravimetry (DMSG) using a Controlled Atmosphere Microbalance (Pharmacia Corp., Kalamazoo, Mich.). All chemicals used are available from Aldrich Chemical Co., Milwaukee, Wis., unless otherwise specified. N-({(5S)-3-[3,5-difluoro-4-(4-thiomorpholinyl)phenyl]-2-oxo-1,3-oxazolidin-5-yl}methyl)acetamide was prepared as described in PCT International Publication Number WO 01/98297 (Barbachyn et al.).\nDMSG isotherms were collected on the variable temperature controlled atmospheric microbalance. Approximately 10 mg samples were used in the balance. […] The mass was then measured every two minutes. […]"}}, "data": [{"smiles": "CC(=O)NC[C@H]1CN(c2cc(F)c(N3CCS(=O)(=O)CC3)c(F)c2)C(=O)O1", "note": "[Anhydrous Crystalline Form, N-({(5S)-3-[4-(1,1-dioxido-4-thiomorpholinyl)-3,5-difluorophenyl]-2-oxo-1,3-oxazolidin-5-yl}methyl)acetamide]", "values": [{"measurement": "Bulk drug stability, % of initial HPLC peak area", "setting": "[1]; 56° C., 75% relative humidity, Day 6", "result": 100.1, "unit": "%"}, {"measurement": "Bulk drug stability, % of initial HPLC peak area", "setting": "[1]; 56° C., 75% relative humidity, Day 13", "result": 99.3, "unit": "%"}, {"measurement": "Bulk drug stability, % of initial HPLC peak area", "setting": "[1]; 56° C., 75% relative humidity, Day 27", "result": 99.9, "unit": "%"}, {"measurement": "Bulk drug stability, % of initial HPLC peak area", "setting": "[1]; 56° C., 75% relative humidity, Day 61", "result": 100.1, "unit": "%"}, {"measurement": "Bulk drug stability, % of initial HPLC peak area", "setting": "[1]; 56° C., dessicator, Day 6", "result": 100.1, "unit": "%"}, {"measurement": "Bulk drug stability, % of initial HPLC peak area", "setting": "[1]; 56° C., dessicator, Day 13", "result": 99.4, "unit": "%"}, {"measurement": "Bulk drug stability, % of initial HPLC peak area", "setting": "[1]; 56° C., dessicator, Day 27", "result": 100.0, "unit": "%"}, {"measurement": "Bulk drug stability, % of initial HPLC peak area", "setting": "[1]; 56° C., dessicator, Day 61", "result": 99.8, "unit": "%"}, {"measurement": "Bulk drug stability, % of initial HPLC peak area", "setting": "[1]; 70° C., 75% relative humidity, Day 6", "result": 100.1, "unit": "%"}, {"measurement": "Bulk drug stability, % of initial HPLC peak area", "setting": "[1]; 70° C., 75% relative humidity, Day 13", "result": 99.6, "unit": "%"}, {"measurement": "Bulk drug stability, % of initial HPLC peak area", "setting": "[1]; 70° C., 75% relative humidity, Day 27", "result": 99.9, "unit": "%"}, {"measurement": "Bulk drug stability, % of initial HPLC peak area", "setting": "[1]; 70° C., 75% relative humidity, Day 61", "result": 99.9, "unit": "%"}, {"measurement": "Bulk drug stability, % of initial HPLC peak area", "setting": "[1]; 70° C., dessicator, Day 6", "result": 100.1, "unit": "%"}, {"measurement": "Bulk drug stability, % of initial HPLC peak area", "setting": "[1]; 70° C., dessicator, Day 13", "result": 99.7, "unit": "%"}, {"measurement": "Bulk drug stability, % of initial HPLC peak area", "setting": "[1]; 70° C., dessicator, Day 27", "result": 100.0, "unit": "%"}, {"measurement": "Bulk drug stability, % of initial HPLC peak area", "setting": "[1]; 70° C., dessicator, Day 61", "result": 100.0, "unit": "%"}, {"measurement": "Bulk drug stability in aging tests (in words)", "setting": "[1]; aging tests", "result": "excellent bulk drug stability"}, {"measurement": "Hygroscopicity", "setting": "[2]; dynamic moisture sorption scan 0 to 87% relative humidity", "result": "not hygroscopic"}, {"measurement": "Moisture picked up during dynamic moisture sorption scan", "setting": "[2]; scan from 0 to 87% relative humidity, 3% humidity steps, equilibrium time not more than 180 minutes per step", "result": "approximately 0.2%"}]}]}
